The record followed here is US20100197789A1, “ANTI-OBESITY AGENT AND USE THEREOF” (National University Corporation Nagoya University, priority 2006, published 2010).

Test [1] deals with db/db mice. The test can be described thus: Food intake amount and body weight, 5 week-continuous oral administration in drinking water, db/db mice. The following applies: enantiomer 1.1 mg/dl in drinking water, oral, 5 weeks; for body weight increase / food intake amount: vs control. Format: in vivo, mouse. As to the method:
5 week-old male C57BL/KsJ-db/db mice (db/db mice: body weight 19 to 25 g, Japan SLC, Inc.) were purchased and individually fed in tip cages. For the db/db mice, normal pellet diet (CE-2) was administered under free water intake and free food intake. A body weight and a food intake amount over 24 hours were measured every day from the start of feeding. On day 3 after the start of feeding, blood was taken from an orbit after 6 hour-fasting and a blood glucose level and a blood insulin concentration were measured. The db/db mice were divided into three groups (10 mice per each group) so that a body weight, a 24 hour-food intake amount, a blood glucose level, and a blood insulin concentration were equal, and defined to be a control group, a low concentration baclofen treated group, and a high concentration baclofen treated group. After division into the groups, from day 5 after the start of feeding, (±)-baclofen was dissolved in drinking water and 5 week-continuous oral administration to the baclofen treated groups was started. (±)-baclofen was dissolved in drinking water at a concentration of 1.1 mg/dl in the low concentration treated group and at a concentration of 2.7 mg/dl in the high concentration treated group. A food intake amount and a body weight were measured over time during the period of 5 week-administration of (±)-baclofen, blood was taken after the end of the 5-week administration, and the db/db mice were sacrificed by cervical luxation. Brains, epididymal white adipose tissues, subcutaneous white adipose tissues and brown adipose tissues were surgically removed. The brains and brown adipose tissues were frozen in dry ice and liquid nitrogen immediately after the removal and then preserved at −80° C. The epididymal white adipose tissues and subcutaneous white adipose tissues were measured in weights, and then fixed in 4% formaldehyde and preserved at 4° C.
5 week-old male C57BL/KsJ-db/db mice (db/db mice: body weight 19 to 25 g, Japan SLC, Inc.) were purchased and individually fed in tip cages. For the db/db mice, normal pellet diet (CE-2) was administered under free water intake and free food intake. A body weight and a food intake amount over 24 hours were measured everyday from the start of feeding. On day 3 after the start of feeding, blood was taken from an orbit after 6 hour-fasting and a blood glucose level and a blood insulin concentration were measured. […] After division into the groups, from day 5 after the start of feeding, R-baclofen and S-baclofen were dissolved in drinking water and 5 week-continuous oral administration was started. […] A food intake amount and a body weight were measured over time, and a rectal temperature was measured 5 weeks after the start of the administration. Blood was taken after the 5-week administration of baclofen, and the db/db mice were sacrificed by cervical luxation.
5 week-old male C57BL/KsJ-db/db mice (db/db mice: body weight 19 to 25 g, Japan SLC, Inc.) were purchased and individually fed in tip cages. Normal pellet diet (CE-2) was administered to the db/db mice under free water intake and free food intake. A body weight and a food intake amount over 24 hours were measured every day from the start of feeding. On day 3 after the start of feeding, blood was taken from an orbit after 6 hour-fasting, and a blood glucose level and a blood insulin concentration were measured. The db/db mice were divided into five groups (10 mice per each group) so that a body weight, a 24 hour-food intake amount, a blood glucose level, and a blood insulin concentration were equal, and defined to be a control group and baclofen treated groups. (±)-baclofen was dissolved in drinking water at respective concentrations of 4×10^−6 M, 10×10^−6 M, 40×10^−6 M, and 100×10^−6 M, and continuously orally administered to the baclofen treated groups for 5 weeks. A food intake amount, a body weight and a water-drinking amount were measured over time during the period of 5 week-administration of (±)-baclofen. […]

In test [2] the test system is db/db mice. The test can be described thus: Rectal temperature, oxygen consumption and motor activity, db/db mice. The following applies: enantiomer 1.1 mg/dl in drinking water for 5 weeks, measured at 20 o'clock for 3 days. Format: in vivo, mouse. The method, then:
5 week-old male C57BL/KsJ-db/db mice (db/db mice: body weight 19 to 25 g, Japan SLC, Inc.) were purchased and individually fed in tip cages. For the db/db mice, normal pellet diet (CE-2) was administered under free water intake and free food intake. A body weight and a food intake amount over 24 hours were measured everyday from the start of feeding. On day 3 after the start of feeding, blood was taken from an orbit after 6 hour-fasting and a blood glucose level and a blood insulin concentration were measured. The db/db mice were divided into three groups (10 mice per each group) so that a body weight, a 24 hour-food intake amount, a blood glucose level, and a blood insulin concentration were equal, and defined to be a control group, an R-baclofen treated group, and an S-baclofen treated group. […] After division into the groups, from day 5 after the start of feeding, R-baclofen and S-baclofen were dissolved in drinking water and 5 week-continuous oral administration was started. Both of R-baclofen and S-baclofen were dissolved in drinking water at a concentration of 1.1 mg/dl used in the low concentration treated group in the experiment of baclofen racemic mixture administration. A food intake amount and a body weight were measured over time, and a rectal temperature was measured 5 weeks after the start of the administration. Blood was taken after the 5-week administration of baclofen, and the db/db mice were sacrificed by cervical luxation.
R-baclofen and S-baclofen were administered to db/db/mice and (±)-baclofen was administered to db/^+m mice respectively for 5 weeks, and rectal temperatures were then continuously measured for 3 days at 20 o'clock immediately before the dark period when feed intake was started in the mice. The method of measuring rectal temperatures was as follows. That is, the rectal temperatures were measured by using a digital thermistor (manufactured by NATSUME SEISAKUSHO CO., LTD.).
(±)-baclofen was orally administered to db/db mice and DIO mice for 5 weeks and rectal temperatures were measured 5 weeks after the start of the administration, and oxygen consumptions and motor activity were measured by using a small animal metabolism measuring system (model MK-5000: Muromachi Kikai Co., Ltd.).

As for `Cl.NC[C@H](CC(=O)O)c1ccc(Cl)cc1` [R-baclofen, R(+)-Baclofen hydrochloride], in test [1], the “time after start of administration from which body weight increase suppression was significant” value turned out to be 2 weeks, the “time after start of administration from which food intake suppression was significant” value is given as 2 weeks, the body weight increase result is recorded as “significantly suppressed” and the food intake amount entry was “significantly suppressed”. In test [2], the rectal temperature entry is “significantly increased”.

For `Cl.NC[C@@H](CC(=O)O)c1ccc(Cl)cc1` [S-baclofen, S(−)-Baclofen hydrochloride], in test [1], the “time after start of administration from which body weight increase suppression was significant” value was 5 weeks, the “time after start of administration from which food intake suppression was significant” value stood at 5 weeks, the body weight increase result is given as “significant suppression” and the food intake amount result is “significant suppression”. Further, the rectal temperature entry in test [2] was “significantly increased”.
